Patent publication US20250313653A1, “GUEST/HOST INCLUSION COMPLEXES CONTAINING S-NITROSOGLUTATHIONE AND METHODS OF USE THEREOF” (VIRGINIA COMMONWEALTH UNIVERSITY, priority 2022, published 2025)
In brackets after ≈: the same amount, converted by molar mass.

How the values were obtained:
fibroblast L929 cells = test: Cytotoxicity test (MTS assay) of lock-solution-filled silicone tubes; format: cell-based, mouse; settings: 24-h incubation of L929 cells with silicone tubes filled with the lock solution
Method: L929 murine fibroblast cells were suspended in complete media (DMEM with 1% penicillin/streptomycin and 10% FBS) before being seeded in a 24-well plate at a concentration of 5×10^5 cells per well. After 24 h of incubation, the attached cells in each well were incubated in fresh media containing a sterilized 1-cm silicone tube (HelixMark® 60-011-07) filled with a lock solution with buffer, GSNO, or GSNO-αCD and with both ends sealed. MTS assays were performed following the manufacturer's procedure after an additional 24-h incubation. Absorbance at 490 nm was measured by a Cytation 3 imaging plate reader (Biotek).

S. aureus [1] = test: Prevention of intraluminal catheter infection (planktonic and biofilm); format: cell-based; settings: 3-day experiments
Method: (§1) Both biofilm and planktonic bacteria were quantified to evaluate the antibacterial activities of the proposed method. LB medium (25 mg/mL) was used to culture all bacterial strains overnight before performing the antibacterial tests. Segments of medical-grade silicone tubes were all autoclaved. Lock solutions were freshly prepared using the sterilized buffer and filtered through a 0.22 m PES syringe filter. The biofilms on the silicone surface were dip-rinsed 5 times in PBS and detached by 1-min vertexing, 1-min sonication (20% power of a 150 W probe sonifier, Branson Ultrasonics), and another 1-min vertexing for plate counting. When quantifying the planktonic bacteria, the suspension was homogenized by 1-min vertexing. […] After plate incubation at 37° C. overnight, colony-forming units (CFU) of bacteria were counted and converted to CFU/cm^2 for biofilm quantification and CFU/mL for planktonic bacteria quantification. […] In our case, the limit of detection (LOD) is 400 CFU/cm^2 for biofilm quantification and 200 CFU/mL for quantification of planktonic bacteria. […] The statistical significance between groups was determined using a student's t-test.
(§2) The 0.1 M αCD, 0.1 M GSNO, and 0.1 M GSNO+0.1 M αCD solutions were prepared in LB broth buffered with 0.1 M Na2HPO4 and adjusted to pH 7.4. […] Viable biofilm and planktonic cells were evaluated by plate counting. […]

S. aureus [2] = test: Prevention of extraluminal biofilm on silicone catheters; format: cell-based; settings: 3-day experiments, 0.1 M GSNO without or with 0.1 M αCD as lock solution, 37° C.
Method: as §1
The overnight S. aureus culture was diluted by LB (0.25 mg/mL) medium to approximately 10^3 CFU/mL. […] The viable bacteria on the outer surface were counted following the treatment.

[3] = GSNO decomposition in the presence of biologically relevant reactants (cysteine, L-ascorbic acid, BSA); format: physicochemical; settings: for GSNO left after 24 h of storage: 0.1 M GSNO with 20 mg/mL BSA, 37° C.
Method: GSNO was synthesized by nitrosation of reduced L-glutathione in acidified nitrite as previously reported.^52 After collecting GSNO precipitates and washing them using cold water and acetone, GSNO powder was vacuum dried for 4 h and stored at −20° C. GSNO powders were dissolved in phosphate buffer (PB) containing the same mole of Na2HPO4 before the pH adjustment. For example, the formal concentration of Na2HPO4 is 0.1 M when the GSNO concentration is 0.1 M. One hundred μM EDTA was always added to each solution before the solution pH was finally adjusted to 7.4 via NaOH. EDTA is a chelating agent to mask Cu^2+, a S-nitrosothiol catalyst that may exist in solvents and chemicals as an impurity.^53 For solutions with reactive agents, BSA, ascorbic acid, or cysteine was added before the pH adjustment. To prepare GSNO-CD solutions, appropriate amounts of CD powders were dissolved into the GSNO solutions prior to the pH adjustment.
(§3) Aqueous GSNO solutions were contained in 1.5 mL disposable polystyrene cuvettes. The cuvette was caped and further sealed with parafilm. The concentrations of GSNO during storage at 37° C. or 25° C. in the dark were monitored by a UV-vis spectrophotometer (Go Direct® Fluorescence/UV-VIS Spectrophotometer) at a wavelength of 545 nm. A 4 W LED white light was used as the light source for the photodecomposition experiment at room temperature. The distance between the light source and the cuvettes was approximately 10 cm. All GSNO decomposition experiments were triplicated, and the GSNO concentration was expressed as mean±standard deviation.

E. coli = test: Antibacterial effect of NO release solutions, 3-day exposure; format: cell-based; settings: silicone surface
Method: as §1, §2

[4] = at low pH; cited from earlier work
[5] = GSNO photodecomposition under LED white light; format: physicochemical; settings: presence of αCD, 4-h experiment under LED white light, room temperature
Method: as §3

With `N[C@@H](CCC(=O)N[C@@H](CSN=O)C(=O)NCC(=O)O)C(=O)O` [GSNO, S-nitrosoglutathione] the “cytotoxicity / cell viability (MTS)” value (fibroblast L929 cells) was “no cytotoxicity”, the “reduction of bacterial biofilm on silicone rubber” value (S. aureus [1]) was 99.2% and the “reduction of growth of planktonic S. aureus compared to the phosphate buffer” value (S. aureus [1]; 0.1 M GSNO without or with 0.1 M αCD, 37° C.) was 5 orders of magnitude. For the same compound, the “reduction of bacterial biofilm on the outer catheter surface compared to control solutions” value (S. aureus [2]) was 70%, the GSNO lifetime ([3]; 0.1 M GSNO in 0.1 M PB pH 7.4 with 10 mM cysteine or L-ascorbic acid, without αCD) was 2 to 3 days and the “effect on GSNO decomposition rate” value ([3]; 0.1 M GSNO with 10 mM cysteine or L-ascorbic acid, addition of 0.1 M αCD, 4-day experiments) was “remarkably reduces the decomposition rate”. For the same compound, the “GSNO left after 24 h of storage” value ([3]; control group without αCD) was 21%, the “GSNO left after 24 h of storage” value ([3]; in the presence of 0.1 M αCD) was 41% and the “reduction of E. coli biofilm” value (E. coli) was 79%. For the same compound, the aqueous solubility [4] was 75 mM (≈ 25.2 mg/mL) and the “decrease in the decomposition rate of GSNO” value [5] was roughly 2 fold.
